Measured values taken from ChEMBL document CHEMBL5058564, “EUbOPEN Chemogenomics Library 2 (Incucyte)” (2022).

How the values were obtained:
Format in all cases: toxicity, cell-based
Fibroblast = assay: Incucyte cell viability with human fibroblast; conditions: 10 µM, compound concentration 10 uM
U2OS = assay: Incucyte cell viability with U2OS; conditions: human, 10 µM, compound concentration 10 uM
HEK-293T = assay: Incucyte cell viability with HEK293T; conditions: human, 10 µM, compound concentration 10 uM
[1] = 0 h, replicate number 1, timepoint 0 hours
[2] = 0 h, replicate number 2, timepoint 0 hours
[3] = 6 h, replicate number 1, timepoint 6 hours
[4] = 6 h, replicate number 2, timepoint 6 hours
[5] = 12 h, replicate number 1, timepoint 12 hours
[6] = 18 h, replicate number 1, timepoint 18 hours
[7] = 24 h, replicate number 1, timepoint 24 hours
[8] = 12 h, replicate number 2, timepoint 12 hours
[9] = 18 h, replicate number 2, timepoint 18 hours
[10] = 24 h, replicate number 2, timepoint 24 hours
Also: unitless GR value; below 1 slowed growth and below 0 cell loss.

| Structure (SMILES) | Growth Rate (Fibroblast; [2]) | Growth Rate (Fibroblast; [3]) | Growth Rate (Fibroblast; [4]) | Growth Rate (Fibroblast; [5]) | Growth Rate (Fibroblast; [6]) | Growth Rate (Fibroblast; [7]) | Growth Rate (U2OS; [1]) | Growth Rate (U2OS; [2]) | Growth Rate (U2OS; [4]) | Growth Rate (U2OS; [5]) | Growth Rate (U2OS; [8]) | Growth Rate (U2OS; [6]) | Growth Rate (U2OS; [7]) | Growth Rate (HEK-293T; [3]) | Growth Rate (HEK-293T; [5]) | Growth Rate (HEK-293T; [8]) | Growth Rate (HEK-293T; [6]) | Growth Rate (HEK-293T; [7]) | Growth Rate (U2OS; [9]) | Growth Rate (U2OS; [10]) | also measured |
| --- | --- | --- | --- | --- | --- | --- | --- | --- | --- | --- | --- | --- | --- | --- | --- | --- | --- | --- | --- | --- | --- |
| CNCCN1CCC(c2cc(CN(C)C(=O)c3cccc(Oc4ccccc4)c3)ccn2)CC1 | 0.9 | 0.73 | 0.98 | 0.83 | 0.55 | 0.43 | -0.2 | 0.56 | 0.98 | 0.88 | 0.99 | 0.96 | 0.37 | 0.74 | 0.76 | 0.86 | 0.98 | 1 | – | – | Growth Rate (Fibroblast; [1]): 0.7; Growth Rate (HEK-293T; [9]): 0.92; Growth Rate (HEK-293T; [10]): 0.81 |
| COC(=O)N1CCN(C(=O)Cc2ccc(Cl)c(Cl)c2)C(CN2CCCC2)C1.O=C(O)/C=C/C(=O)O (stereo not drawn) | 0.83 | – | 0.71 | – | – | – | – | – | 0.4 | 0.75 | 0.54 | – | – | – | – | 0.72 | – | – | 0.75 | 0.76 | Growth Rate (U2OS; [3]): 0.36; Growth Rate (HEK-293T; [1]): 1 |
| CC(=O)c1ccc2c(c1)[C@@H]1C=CC[C@@H]1[C@H](c1cc3c(cc1Br)OCO3)N2 | – | -0.85 | -0.8 | -0.78 | -0.76 | -0.54 | 0.33 | – | 0 | 0.01 | -0.23 | 0.03 | -0.17 | -0.31 | 0.01 | -0.05 | -0.14 | -0.12 | -0.33 | -0.31 | Growth Rate (Fibroblast; [8]): -0.47; Growth Rate (Fibroblast; [9]): -0.23; Growth Rate (Fibroblast; [10]): -0.18; Growth Rate (HEK-293T; [4]): -0.36; Growth Rate (HEK-293T; [9]): -0.06; Growth Rate (HEK-293T; [10]): -0.02 |
| O=C1NC(Nc2ccccc2)=N/C1=C\c1ccc2c(c1)OCO2 | 0.56 | 0.26 | – | 0.74 | – | – | – | -1 | 0.8 | 0.12 | 0.66 | 0.39 | 0.59 | 0.37 | 0.75 | 0.51 | 0.75 | 0.82 | 0.59 | 0.63 | Growth Rate (U2OS; [3]): -0.77; Growth Rate (HEK-293T; [1]): 0.84; Growth Rate (HEK-293T; [2]): 0.94; Growth Rate (HEK-293T; [4]): 0.13; Growth Rate (HEK-293T; [9]): 0.58; Growth Rate (HEK-293T; [10]): 0.78 |
| COc1cccc2c1c(NS(=O)(=O)c1ccc(Cl)s1)nn2Cc1cccc(CNC(=O)C(C)(C)O)c1 | 0.35 | 0.17 | 0.5 | 0.41 | 0.35 | 0.53 | -0.39 | -1 | – | 0.99 | 0.98 | – | – | – | 0.98 | 0.47 | – | 0.38 | 0.83 | 0.89 | Growth Rate (HEK-293T; [1]): 0.52; Growth Rate (HEK-293T; [4]): 0.95 |
| CN1CCC(C(=O)c2cccc(NC(=O)c3c(F)cc(F)cc3F)n2)CC1 | 0.32 | – | 0.9 | 0.6 | 0.86 | 0.59 | – | 0.68 | – | – | – | – | – | 0.24 | 0.74 | – | 0.81 | 0.93 | – | – | Growth Rate (Fibroblast; [9]): 0.96; Growth Rate (Fibroblast; [10]): 0.78; Growth Rate (U2OS; [3]): 0.94; Growth Rate (HEK-293T; [2]): -1 |
